From US20140303258A1, “Method of solubilizing insoluble bioactive compounds using triterpene glycosides and compositions thereof” (priority 2013, published 2014)

Legend:
[1] = format: physicochemical
Description: (§1) • A. Two beakers each containing 200 ml distilled water (37° C.) were taken. • B. To each beaker, 2 grams commercially available curcuminoids (Curcumin C3 Complex®) was added and gently mixed. […] To the first beaker, 0.35 gram of Bacopa glycosides including 25% w/w to 75% w/w of total Bacosides (Bacopin®) was added and gently mixed for about 15 minutes. […] This corresponded to a Critical Micelle Concentration (CMC) of 17.5% • D. To the second beaker, 0.40 gram of Centella glycosides including at least 8% w/w of total triterpenes (Centellin®) was added and gently mixed for about 15 minutes. […] This corresponded to Critical Micelle Concentration (CMC) of 20.0%.
(§2) • A. Five beakers each containing 200 ml distilled water at 37° C. were taken. To 3 beakers were added 2 gm of bioactive compounds forskolin (Forslean® 95%), boswellic acids (Boswellin® 70%) and pterostilbene 99% respectively. To the other 2 beakers were added 2 gm of Saw Palmetto extract 85% and Ginger Soft extract SCFE 35% respectively. […] The Critical Micelle Concentration (CMC) for each system was determined (Table A; FIGS. 3A, 3B, 3C, 3D and 3E)
(§3) • A. To a beaker containing 200 ml distilled water (37° C.) was added 2 grams of tetrahydrocurcuminoids (C3 Reduct®). […] The majority (˜70%) of tetrahydrocurcuminoids was not observable at the bottom of the beaker anymore due to formation of emulsion (FIG. 4)

[2] = Behaviour of the bioactive in distilled water at 37° C. without solubilizer; format: physicochemical; conditions: 2 grams in 200 ml distilled water, no solubilizer
Description: as §1, §2, §3

| CMC % (wt/wt) [1] | solubility in distilled water (observation) [2] | SMILES |
| --- | --- | --- |
| 20% (wt/wt) | did not go into solution | C=C[C@@]1(C)CC(=O)[C@]2(O)[C@@]3(C)[C@@H](O)CCC(C)(C)[C@@H]3[C@H](O)[C@H](OC(C)=O)[C@@]2(C)O1 [ForsLean 95%, forskolin] |
| 14.50% (wt/wt) | did not go into solution | COc1cc(/C=C/c2ccc(O)cc2)cc(OC)c1 [Pterostilbene 99%, pterostilbene] |
